Data reported in US11981658B2, “Substituted aminopyridine compounds as EGFR inhibitors” (YUHAN CORPORATION, priority 2021, dated 2024).
Read-outs that look alike come from different tables or passages of the source.

How the values were obtained:
EGFR L858R/C797S = EGFR L858R/C797S (Homo sapiens, UniProt P00533, C797S/L858R); test: Biochemical EGFR kinase inhibition assay (Lance Ultra TR-FRET), double mutant L858R/C797S
Protocol: (§1) Biochemical EGFR kinase assays were conducted using Lance Ultra time-resolved fluorescence resonance energy transfer (TR-FRET) technology from Perkin-Elmer. Compounds of the invention were initially diluted to 20 mM in 100% DMSO for storage and made into kinase buffer solution to create a compound concentration ranging from 0.003 μM and 10 μM.
(§2) Each kinase reactions were incubated at room temperature for 1 hour and then stopped by the addition of 4 μL of stop solution (10 mM EDTA). The specific Europium-labeled-anti-phosphopeptide antibody (PerkinElmer, AD0069) diluted in LANCE detection buffer was then added to a final concentration of 2 nM. After 60 minutes incubation at room temperature the LANCE signal was measured on an EnVision Multilabel Reader (Perkin-Elmer). Excitation wavelength was set at 320 nm and emission monitored at 615 nm (donor) and 665 nm (acceptor). The IC50 values were determined using GraphPad prism software (GraphPad Software, Inc., San Diego, CA, USA).

EGFR Del19/T790M/C797S = EGFR Del19/T790M/C797S (Homo sapiens, UniProt P00533, C797S/DEL746-750/T790M); test: Biochemical EGFR kinase inhibition assay (Lance Ultra TR-FRET), triple mutant del19/T790M/C797S
Protocol: as §1, §2

EGFR Del19/C797S = EGFR Del19/C797S (Homo sapiens, UniProt P00533, C797S/DEL746-750); test: Biochemical EGFR kinase inhibition assay (Lance Ultra TR-FRET), double mutant del19/C797S
Protocol: as §1, §2

EGFR L858R/T790M/C797S = EGFR L858R/T790M/C797S (Homo sapiens, UniProt P00533, C797S/L858R/T790M); test: Biochemical EGFR kinase inhibition assay (Lance Ultra TR-FRET), triple mutant L858R/T790M/C797S
Protocol: as §1, §2

EGFR wildtype (WT) = EGFR wildtype (WT) (Homo sapiens, UniProt P00533); test: Biochemical EGFR kinase inhibition assay (Lance Ultra TR-FRET), wildtype
Protocol: as §1, §2

[1] = Km ATP, read-out: IC50 L858R/C797S (nM) Km ATP
[2] = Km ATP, read-out: IC50 Del19/T790M/C797S (nM) Km ATP
[3] = Km ATP, read-out: IC50 Del19/C797S (nM) Km ATP
[4] = Km ATP, read-out: IC50 L858R/T790M/C797S (nM) Km ATP
[5] = Km ATP, read-out: IC50 WT (nM) Km ATP
[6] = IC50 L858R/C797S (nM), 100 μM ATP
[7] = IC50 Del19/T790M/C797S (nM), 100 μM ATP
[8] = IC50 Del19/C797S (nM), 100 μM ATP
[9] = IC50 L858R/T790M/C797S (nM), 100 μM ATP
[10] = ATP at Km, read-out: IC50 Del19/T790M/C797S (nM), Km ATP
[11] = ATP at Km, read-out: IC50 Del19/C797S (nM), Km ATP
[12] = ATP at Km, read-out: IC50 WT (nM), Km ATP

Sequence of EGFR L858R/C797S (P00533 25-1210 C797S/L858R): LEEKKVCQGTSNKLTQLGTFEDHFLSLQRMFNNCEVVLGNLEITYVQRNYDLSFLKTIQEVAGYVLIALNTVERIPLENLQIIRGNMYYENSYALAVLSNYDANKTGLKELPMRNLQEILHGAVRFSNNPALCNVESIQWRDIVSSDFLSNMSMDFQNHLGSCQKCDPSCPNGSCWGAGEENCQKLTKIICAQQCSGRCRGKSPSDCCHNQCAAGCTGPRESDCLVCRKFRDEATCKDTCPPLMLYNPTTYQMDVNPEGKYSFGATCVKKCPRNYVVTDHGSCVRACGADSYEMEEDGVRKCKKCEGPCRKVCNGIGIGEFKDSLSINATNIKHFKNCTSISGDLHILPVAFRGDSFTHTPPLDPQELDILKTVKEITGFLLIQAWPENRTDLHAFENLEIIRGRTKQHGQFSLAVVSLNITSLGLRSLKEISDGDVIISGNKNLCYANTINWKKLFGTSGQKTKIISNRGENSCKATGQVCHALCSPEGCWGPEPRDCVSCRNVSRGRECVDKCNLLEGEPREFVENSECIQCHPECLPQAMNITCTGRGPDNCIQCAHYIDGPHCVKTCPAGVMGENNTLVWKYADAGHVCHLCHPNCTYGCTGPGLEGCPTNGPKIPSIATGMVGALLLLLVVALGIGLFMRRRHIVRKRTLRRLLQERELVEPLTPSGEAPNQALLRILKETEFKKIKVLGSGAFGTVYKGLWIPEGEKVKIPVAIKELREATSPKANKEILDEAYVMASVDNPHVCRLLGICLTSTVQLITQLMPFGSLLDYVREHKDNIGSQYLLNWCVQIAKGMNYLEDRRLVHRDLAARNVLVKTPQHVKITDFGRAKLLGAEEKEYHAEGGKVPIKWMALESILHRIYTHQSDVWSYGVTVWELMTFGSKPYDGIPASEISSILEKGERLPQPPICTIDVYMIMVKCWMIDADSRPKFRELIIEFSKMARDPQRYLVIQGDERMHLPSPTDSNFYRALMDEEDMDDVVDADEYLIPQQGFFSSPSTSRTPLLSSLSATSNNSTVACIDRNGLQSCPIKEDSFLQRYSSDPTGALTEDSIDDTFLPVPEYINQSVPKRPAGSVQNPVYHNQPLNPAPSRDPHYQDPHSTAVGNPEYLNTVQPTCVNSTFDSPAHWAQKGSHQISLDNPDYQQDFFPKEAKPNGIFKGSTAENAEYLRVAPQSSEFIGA
Sequence of EGFR wildtype (WT) (P00533 25-1210): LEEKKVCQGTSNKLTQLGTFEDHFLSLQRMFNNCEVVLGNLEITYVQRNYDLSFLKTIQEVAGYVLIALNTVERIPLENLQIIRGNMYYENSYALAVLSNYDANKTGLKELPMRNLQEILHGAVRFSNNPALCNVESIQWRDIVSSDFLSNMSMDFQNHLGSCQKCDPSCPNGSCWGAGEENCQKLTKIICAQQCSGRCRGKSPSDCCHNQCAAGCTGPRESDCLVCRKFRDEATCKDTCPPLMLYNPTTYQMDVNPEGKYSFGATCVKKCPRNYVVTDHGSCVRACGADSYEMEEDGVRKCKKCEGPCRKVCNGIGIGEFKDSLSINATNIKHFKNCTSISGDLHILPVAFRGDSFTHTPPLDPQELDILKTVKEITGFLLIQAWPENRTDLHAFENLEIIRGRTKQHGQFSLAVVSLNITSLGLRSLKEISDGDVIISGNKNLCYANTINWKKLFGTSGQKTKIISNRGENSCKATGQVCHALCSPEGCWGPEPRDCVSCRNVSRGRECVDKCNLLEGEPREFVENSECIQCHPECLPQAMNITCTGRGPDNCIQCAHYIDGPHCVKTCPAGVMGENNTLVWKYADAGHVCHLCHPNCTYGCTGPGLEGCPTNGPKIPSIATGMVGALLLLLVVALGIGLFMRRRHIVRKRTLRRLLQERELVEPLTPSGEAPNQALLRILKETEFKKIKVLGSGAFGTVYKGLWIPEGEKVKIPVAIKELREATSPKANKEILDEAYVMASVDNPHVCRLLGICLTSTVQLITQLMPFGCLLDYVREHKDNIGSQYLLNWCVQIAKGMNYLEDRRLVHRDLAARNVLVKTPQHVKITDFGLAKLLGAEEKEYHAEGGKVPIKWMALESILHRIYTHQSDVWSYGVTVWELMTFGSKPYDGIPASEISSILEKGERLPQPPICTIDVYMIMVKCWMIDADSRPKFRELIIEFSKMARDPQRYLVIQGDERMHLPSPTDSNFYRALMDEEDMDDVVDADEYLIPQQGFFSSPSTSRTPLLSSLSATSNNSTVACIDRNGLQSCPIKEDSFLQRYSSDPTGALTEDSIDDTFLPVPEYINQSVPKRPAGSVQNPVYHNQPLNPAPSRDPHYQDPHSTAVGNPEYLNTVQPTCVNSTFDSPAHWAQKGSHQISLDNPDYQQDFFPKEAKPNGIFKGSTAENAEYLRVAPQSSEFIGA
Sequence of EGFR Del19/C797S (P00533 with tags, fused parts or gaps DEL746-750/C797S): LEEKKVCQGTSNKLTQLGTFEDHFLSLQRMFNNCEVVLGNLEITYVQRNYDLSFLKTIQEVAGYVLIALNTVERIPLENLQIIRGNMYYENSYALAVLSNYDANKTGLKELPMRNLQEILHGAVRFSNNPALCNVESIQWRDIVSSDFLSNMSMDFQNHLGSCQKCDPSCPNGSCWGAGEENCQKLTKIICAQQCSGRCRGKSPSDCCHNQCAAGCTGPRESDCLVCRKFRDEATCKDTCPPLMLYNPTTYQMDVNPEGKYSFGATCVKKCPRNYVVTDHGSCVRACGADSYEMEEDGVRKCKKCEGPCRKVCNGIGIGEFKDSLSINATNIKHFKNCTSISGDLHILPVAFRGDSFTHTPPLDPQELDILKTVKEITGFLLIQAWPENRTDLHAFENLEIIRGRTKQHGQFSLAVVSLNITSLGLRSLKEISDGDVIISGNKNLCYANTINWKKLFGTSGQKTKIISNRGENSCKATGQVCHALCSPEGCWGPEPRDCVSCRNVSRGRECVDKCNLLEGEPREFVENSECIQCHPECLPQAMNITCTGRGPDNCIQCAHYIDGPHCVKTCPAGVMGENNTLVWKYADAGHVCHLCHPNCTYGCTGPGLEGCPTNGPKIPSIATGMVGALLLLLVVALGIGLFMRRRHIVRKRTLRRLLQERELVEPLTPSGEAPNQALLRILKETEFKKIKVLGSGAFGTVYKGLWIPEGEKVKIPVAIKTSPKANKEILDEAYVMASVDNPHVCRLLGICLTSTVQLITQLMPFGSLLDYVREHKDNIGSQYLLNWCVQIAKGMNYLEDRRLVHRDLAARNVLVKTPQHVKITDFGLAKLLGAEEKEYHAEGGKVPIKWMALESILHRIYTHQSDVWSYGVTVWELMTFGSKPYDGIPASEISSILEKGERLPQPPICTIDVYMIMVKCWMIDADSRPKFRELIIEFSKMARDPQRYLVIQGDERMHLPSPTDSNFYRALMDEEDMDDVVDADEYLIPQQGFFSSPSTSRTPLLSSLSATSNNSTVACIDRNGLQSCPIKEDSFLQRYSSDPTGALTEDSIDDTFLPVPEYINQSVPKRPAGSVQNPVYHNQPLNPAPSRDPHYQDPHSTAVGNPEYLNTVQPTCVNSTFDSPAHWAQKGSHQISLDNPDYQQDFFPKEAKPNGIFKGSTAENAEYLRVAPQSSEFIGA
Sequence of EGFR L858R/T790M/C797S (P00533 25-1210 T790M/C797S/L858R): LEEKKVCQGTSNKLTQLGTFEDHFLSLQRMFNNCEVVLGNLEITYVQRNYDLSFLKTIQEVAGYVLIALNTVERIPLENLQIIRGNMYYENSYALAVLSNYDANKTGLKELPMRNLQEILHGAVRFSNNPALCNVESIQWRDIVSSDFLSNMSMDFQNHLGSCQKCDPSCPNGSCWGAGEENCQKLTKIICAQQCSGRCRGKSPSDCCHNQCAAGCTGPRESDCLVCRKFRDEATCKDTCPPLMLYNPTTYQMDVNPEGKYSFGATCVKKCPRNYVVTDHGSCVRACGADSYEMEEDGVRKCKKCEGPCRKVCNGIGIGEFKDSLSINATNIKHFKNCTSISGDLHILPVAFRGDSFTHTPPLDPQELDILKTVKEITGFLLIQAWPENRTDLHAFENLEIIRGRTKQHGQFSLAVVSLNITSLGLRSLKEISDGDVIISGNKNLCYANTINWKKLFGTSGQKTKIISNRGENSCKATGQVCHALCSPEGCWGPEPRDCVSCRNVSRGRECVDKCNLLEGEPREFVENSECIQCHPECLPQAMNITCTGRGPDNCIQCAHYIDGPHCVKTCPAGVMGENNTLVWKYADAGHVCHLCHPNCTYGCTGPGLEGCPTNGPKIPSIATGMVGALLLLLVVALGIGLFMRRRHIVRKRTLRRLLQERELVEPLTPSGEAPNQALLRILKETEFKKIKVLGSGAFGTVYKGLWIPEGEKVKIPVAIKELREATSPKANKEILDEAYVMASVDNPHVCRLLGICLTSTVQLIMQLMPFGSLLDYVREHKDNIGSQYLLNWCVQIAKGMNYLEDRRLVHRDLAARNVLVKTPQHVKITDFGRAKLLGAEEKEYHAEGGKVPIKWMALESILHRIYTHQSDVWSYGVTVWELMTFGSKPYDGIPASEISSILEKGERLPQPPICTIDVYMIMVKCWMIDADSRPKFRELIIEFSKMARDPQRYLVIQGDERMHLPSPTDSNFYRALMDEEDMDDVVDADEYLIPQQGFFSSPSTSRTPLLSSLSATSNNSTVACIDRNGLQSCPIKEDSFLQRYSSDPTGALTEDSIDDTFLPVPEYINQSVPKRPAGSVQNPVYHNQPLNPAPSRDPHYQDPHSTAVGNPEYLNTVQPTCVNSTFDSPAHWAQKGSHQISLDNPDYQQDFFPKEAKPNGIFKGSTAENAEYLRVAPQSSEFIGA

IC50 (EGFR Del19/T790M/C797S; [2]) | IC50 (EGFR Del19/C797S; [3]) | IC50 (EGFR L858R/T790M/C797S; [4]) | IC50 (EGFR wildtype (WT); [5]) | IC50 (EGFR Del19/T790M/C797S; [7]) | IC50 (EGFR Del19/C797S; [8]) | IC50 (EGFR wildtype (WT); IC50 WT (nM), 100 μM ATP) | Compound | further results
1.3 nM | 71.3 nM | 5.4 nM | 230 nM |  |  |  | CN1CCN(c2cc(Nc3ccnc(-c4cnn(S(=O)(=O)C5CC5)c4)n3)ncc2C#Cc2cnn(C)c2)CC1 [Example 1, 2-(1-(Cyclopropylsulfonyl)-1H-pyrazol-4-yl)-N-(5-((1-methyl-1H-pyrazol-4-yl)ethynyl)-4-(4-methylpiperazin-1-yl)pyridin-2-yl)pyrimidin-4-amine] | IC50 (EGFR L858R/C797S; [1]): 34.6 nM
5.7 nM | 112 nM | 11.2 nM | 881 nM |  |  |  | Cn1cc(C#Cc2cnc(Nc3ccnc(-c4cnn(S(=O)(=O)C5CC5)c4)n3)cc2NC2CCCCC2)cn1 [Example 2, N^4-Cyclohexyl-N^2-(2-(1-(cyclopropylsulfonyl)-1H-pyrazol-4-yl)pyrimidin-4-yl)-5-((1-methyl-1H-pyrazol-4-yl)ethynyl)pyridine-2,4-diamine] | IC50 (EGFR L858R/C797S; [1]): 143 nM
 |  |  |  | 1.1 nM | 38.6 nM | > 10000 nM | C[C@H](CCO)Nc1cc(Nc2ccnc(-c3cnn(S(=O)(=O)C4CC4)c3)n2)ncc1C#Cc1cnn(C)c1 [Example 4, (R)-3-((2-((2-(1-(Cyclopropylsulfonyl)-1H-pyrazol-4-yl)pyrimidin-4-yl)amino)-5-((1-methyl-1H-pyrazol-4-yl)ethynyl)pyridin-4-yl)amino)butan-1-ol] | IC50 (EGFR L858R/C797S; [6]): 103 nM; IC50 (EGFR L858R/T790M/C797S; [9]): 12.6 nM
 |  |  |  | 3.8 nM | 404 nM | > 10000 nM | C[C@H](Nc1cc(Nc2ccnc(-c3cnn(S(=O)(=O)C4CC4)c3)n2)ncc1C#Cc1cnn(C)c1)C(C)(C)O [Example 5, (S)-3-((2-((2-(1-(Cyclopropylsulfonyl)-1H-pyrazol-4-yl)pyrimidin-4-yl)amino)-5-((1-methyl-1H-pyrazol-4-yl)ethynyl)pyridin-4-yl)amino)-2-methylbutan-2-ol] | IC50 (EGFR L858R/C797S; [6]): 418 nM; IC50 (EGFR L858R/T790M/C797S; [9]): 44.3 nM
6.1 nM | 138 nM | 13.2 nM | 2580 nM |  |  |  | CC(C)Oc1cc(Nc2ccnc(-c3cnn(S(=O)(=O)C4CC4)c3)n2)ncc1C#Cc1cnn(C)c1 [Example 54, 2-(1-(Cyclopropylsulfonyl)-1H-pyrazol-4-yl)-N-(4-isopropoxy-5-((1-methyl-1H-pyrazol-4-yl)ethynyl)pyridin-2-yl)pyrimidin-4-amine] | 
7 nM | 398 nM | 19.1 nM | 2630 nM |  |  |  | CC(C)Oc1cc(Nc2ccnc(-c3cnn(S(=O)(=O)C4CC4)c3)n2)ncc1C#Cc1cnn(CCF)c1 [Example 55, 2-(1-(Cyclopropylsulfonyl)-1H-pyrazol-4-yl)-N-(5-((1-(2-fluoroethyl)-1H-pyrazol-4-yl)ethynyl)-4-isopropoxypyridin-2-yl)pyrimidin-4-amine] | 
 |  |  |  |  |  |  | Cc1nc(C#Cc2cnc(Nc3ccnc(-c4cnn(S(=O)(=O)C5CC5)c4)n3)cc2NC(C)C)cs1 [Example 199, N^2-(2-(1-(Cyclopropylsulfonyl)-1H-pyrazol-4-yl)pyrimidin-4-yl)-N^4-isopropyl-5-((2-methylthiazol-4-yl)ethynyl)pyridine-2,4-diamine] | IC50 (EGFR L858R/C797S; ATP at Km, read-out: IC50 L858R/C797S (nM), Km ATP): 414 nM; IC50 (EGFR Del19/T790M/C797S; [10]): 5.7 nM; IC50 (EGFR Del19/C797S; [11]): 82 nM; IC50 (EGFR L858R/T790M/C797S; ATP at Km, read-out: IC50 L858R/T790M/C797S (nM), Km ATP): 3.4 nM
 |  |  |  | 11.3 nM | 1000 nM | > 10000 nM | CC(C)Nc1cc(Nc2ccnc(-c3cnn(S(=O)(=O)C4CC4)c3)n2)ncc1C#Cc1csc(CF)n1 [Example 200, N^2-(2-(1-(cyclopropylsulfonyl)-1H-pyrazol-4-yl)pyrimidin-4-yl)-5-((2-(fluoromethyl)thiazol-4-yl)ethynyl)-N^4-isopropylpyridine-2,4-diamine] | IC50 (EGFR Del19/T790M/C797S; [10]): 12.6 nM; IC50 (EGFR Del19/C797S; [11]): 350 nM; IC50 (EGFR L858R/T790M/C797S; [9]): 29.8 nM; IC50 (EGFR wildtype (WT); [12]): 4100 nM
 |  |  |  | 2.9 nM | 76.4 nM | > 10000 nM | CC(C)Nc1cc(Nc2ccnc(-c3cnn(S(=O)(=O)C4CC4)c3)n2)ncc1C#CCCCNC(=O)N1CCOCC1 [Example 207, N-(5-(6-((2-(1-(Cyclopropylsulfonyl)-1H-pyrazol-4-yl)pyrimidin-4-yl)amino)-4-(isopropylamino)pyridin-3-yl)pent-4-yn-1-yl)morpholine-4-carboxamide] | IC50 (EGFR L858R/C797S; [6]): 120 nM; IC50 (EGFR Del19/T790M/C797S; [10]): 2.1 nM; IC50 (EGFR Del19/C797S; [11]): 29.1 nM; IC50 (EGFR wildtype (WT); [12]): 56 nM
 |  |  |  | 3.5 nM | 120 nM | > 10000 nM | CC(C)Nc1cc(Nc2ccnc(-c3cnn(S(=O)(=O)C4CC4)c3)n2)ncc1C#CCCCC(=O)N1CCOCC1 [Example 208, 6-(6-((2-(1-(Cyclopropylsulfonyl)-1H-pyrazol-4-yl)pyrimidin-4-yl)amino)-4-(isopropylamino)pyridin-3-yl)-1-morpholinohex-5-yn-1-one] | IC50 (EGFR Del19/T790M/C797S; [10]): 5.1 nM; IC50 (EGFR Del19/C797S; [11]): 56 nM; IC50 (EGFR L858R/T790M/C797S; [9]): 8.1 nM; IC50 (EGFR wildtype (WT); [12]): 107 nM
 |  |  |  | 3.4 nM | 143 nM | > 10000 nM | CC(C)Nc1cc(Nc2ccnc(-c3cnn(S(=O)(=O)C4CC4)c3)n2)ncc1C#CCCCCC(=O)N1CCOCC1 [Example 210, 7-(6-((2-(1-(Cyclopropylsulfonyl)-1H-pyrazol-4-yl)pyrimidin-4-yl)amino)-4-(isopropylamino)pyridin-3-yl)-1-morpholinohept-6-yn-1-one] | IC50 (EGFR L858R/C797S; [6]): 157 nM
 |  |  |  | 5.2 nM | 197 nM | > 10000 nM | Cc1nc(C#Cc2cnc(Nc3ccnc(-c4cnn(S(=O)(=O)C5CC5)c4)n3)cc2N[C@H]2CC[C@H](O)C2)cs1 [Example 222, (1 S,3S)-3-((2-((2-(1-(Cyclopropylsulfonyl)-1H-pyrazol-4-yl)pyrimidin-4-yl)amino)-5-((2-methylthiazol-4-yl)ethynyl)pyridin-4-yl)amino)cyclopentan-1-ol] | IC50 (EGFR L858R/T790M/C797S; [9]): 12.2 nM
4.5 nM | 299 nM | 15.5 nM | 1340 nM |  |  |  | Cn1cc(C#Cc2cnc(Nc3ccnc(-c4cnn(S(=O)(=O)C5CC5)c4)n3)cc2-c2cnn(C)c2)cn1 [Example 233, 2-(1-(Cyclopropylsulfonyl)-1H-pyrazol-4-yl)-N-(4-(1-methyl-1H-pyrazol-4-yl)-5-((1-methyl-1H-pyrazol-4-yl)ethynyl)pyridin-2-yl)pyrimidin-4-amine] | 
4.1 nM | 214 nM | 16.1 nM | 1010 nM |  |  |  | Cn1cc(-c2cc(Nc3ccnc(-c4cnn(S(=O)(=O)C5CC5)c4)n3)ncc2C#Cc2cnn(CCF)c2)cn1 [Example 234, 2-(1-(Cyclopropylsulfonyl)-1H-pyrazol-4-yl)-N-(5-((1-(2-fluoroethyl)-1H-pyrazol-4-yl)ethynyl)-4-(1-methyl-1H-pyrazol-4-yl)pyridin-2-yl)pyrimidin-4-amine] | 
4.7 nM | 311 nM | 13.2 nM | 2220 nM |  |  |  | Cn1cc(C#Cc2cnc(Nc3ccnc(-c4cnn(S(=O)(=O)C5CC5)c4)n3)cc2-c2cnn(C3CC3)c2)cn1 [Example 235, N-(4-(1-Cyclopropyl-1H-pyrazol-4-yl)-5-((1-methyl-1H-pyrazol-4-yl)ethynyl)pyridin-2-yl)-2-(1-(cyclopropylsulfonyl)-1H-pyrazol-4-yl)pyrimidin-4-amine] | 
5.5 nM | 232 nM | 16.5 nM | 2720 nM |  |  |  | O=S(=O)(C1CC1)n1cc(-c2nccc(Nc3cc(-c4cnn(C5CC5)c4)c(C#Cc4cnn(CCF)c4)cn3)n2)cn1 [Example 237, N-(4-(1-Cyclopropyl-1H-pyrazol-4-yl)-5-((1-(2-fluoroethyl)-1H-pyrazol-4-yl)ethynyl)pyridin-2-yl)-2-(1-(cyclopropylsulfonyl)-1H-pyrazol-4-yl)pyrimidin-4-amine] | 

Compound | IC50 (EGFR Del19/T790M/C797S; [2]) | IC50 (EGFR Del19/C797S; [3]) | IC50 (EGFR L858R/T790M/C797S; [4]) | IC50 (EGFR wildtype (WT); [5]) | IC50 (EGFR Del19/T790M/C797S; [7]) | IC50 (EGFR Del19/C797S; [8]) | IC50 (EGFR wildtype (WT); IC50 WT (nM), 100 μM ATP) | further results
CCC(C)Oc1cc(Nc2ccnc(-c3cnn(S(=O)(=O)C4CC4)c3)n2)ncc1C#Cc1cnn(C)c1 (stereo not drawn) [Example 56, N-(4-(sec-Butoxy)-5-((1-methyl-1H-pyrazol-4-yl)ethynyl)pyridin-2-yl)-2-(1-(cyclopropylsulfonyl)-1H-pyrazol-4-yl)pyrimidin-4-amine] | 7.6 nM | 291 nM | 24.2 nM | > 10000 nM |  |  |  | 
